The source of these data is patent publication US20240216369A1, “THE USE OF A SPLICING MODULATOR FOR A TREATMENT SLOWING PROGRESSION OF HUNTINGTON'S DISEASE” (Novartis AG, priority 2019, published 2024).

For one experiment, the system named is tHTT. Nature of the experiment: Mutant and total HTT multiplex HTRF assay in Q48 HTT human embryonic stem cell line: tHTT. It is filed as cell-based. Particulars: Q48 HTT hESC, 48 hours. The procedure:
(§1) The multiplex assay is performed in human embryonic stem cells (hESCs) which have been derived by Genea Biocells from human blastocysts of HD donors. Cells are plated at a density of 10,000 cells/well into 384-well collagen coated plates and left to adhere for 24 hours, compounds 1 to 82 are then added to cells and incubated for 48 hours (37° C., 5% CO2), cells are then lysed and the contents split into a black 384-well plate.
(§2) The black plates have a combination of HTRF labeled monoclonal antibodies added which recognize discrete areas of the HTT protein, the 2B7-Tb “donor” antibody (0.2 ng/well) recognizes a sequence at the N-terminus of the protein, an MW1-Alexa488 “acceptor 1” antibody (30 ng/well) recognizes an area in the polyQ region, whereas a MAB2166-d2 “acceptor 2” antibody (6 ng/well) recognizes a sequence beyond the polyQ region. The 2B7 antibody was obtained from Coriell (CH02024), the MW1 antibody from Millipore (MABN2427), and the MAB2166 antibody from Millipore (1HU-4C8).
(§3) These detection reagents are incubated with the cell lysate at room temperature for 4-6 hours before having their fluorescence quantified at 615 nm (donor) and 535 nm and 665 nm (acceptor 1 and 2 respectively). The donor/acceptor ratio between these signals indicates the relative quantities of mHTT and tHTT proteins. As shown in the Table 1, compounds 1 to 82 as described therein and in Table 2, had the following pIC50 values.
In general terms: TR-FRET usually uses a lanthanide donor and a delayed reading to cut background.

A further experiment deals with mHTT. The experiment in a line: Mutant and total HTT multiplex HTRF assay in Q48 HTT human embryonic stem cell line: mHTT. It is filed as cell-based. Particulars: Q48 HTT hESC, 48 hours. As to the method:
as §1, §2, §3

Regarding `CN(c1nnc(-c2cc(F)c(-c3cn[nH]c3)cc2Cl)s1)C1CC(C)(C)NC(C)(C)C1` [Compound 22, 5-(2-chloro-5-fluoro-4-(1H-pyrazol-4-yl)phenyl)-N-methyl-N-(2,2,6,6-tetramethylpiperidin-4-yl)-1,3,4-thiadiazol-2-amine], the “tHTT pIC50” value in the experiment with tHTT came to 7.1125. Also, in the experiment on mHTT, the “Rating (based on mHTT potency)” value was “**** (a pIC50 value between 7.0 and 7.5 is indicated by four stars (****))”; the “mHTT pIC50” value is given as 7.1945.
Turning to `CN(c1ccc(-c2c(O)cc(-c3ccn(C)c(=O)c3)cc2F)nn1)C1CC(C)(C)NC(C)(C)C1` [Compound 23, 4-(3-fluoro-5-hydroxy-4-(6-(methyl(2,2,6,6-tetramethylpiperidin-4-yl)amino)pyridazin-3-yl)phenyl)-1-methylpyridin-2(1H)-one], in the experiment with tHTT, the “tHTT pIC50” value was determined as 7.17. Further, in the experiment with mHTT, the “Rating (based on mHTT potency)” value is “**** (a pIC50 value between 7.0 and 7.5 is indicated by four stars (****))”; the “mHTT pIC50” value was 7.1895.
As to `CCn1ccc2cc(O)c(-c3ccc(OC4CC(C)(C)NC(C)(C)C4)nn3)cc2c1=O` [Compound 24, 2-ethyl-6-hydroxy-7-(6-((2,2,6,6-tetramethylpiperidin-4-yl)oxy)pyridazin-3-yl)isoquinolin-1(2H)-one], the “tHTT pIC50” value in the experiment on tHTT came out at 7.168. In the experiment on mHTT, the “Rating (based on mHTT potency)” value was “**** (a pIC50 value between 7.0 and 7.5 is indicated by four stars (****))”; the “mHTT pIC50” value came to 7.186.
Take `CN(c1ccc(-c2cc3c(O)nccc3cc2O)nn1)C1CC(C)(C)NC(C)(C)C1` [Compound 25, 7-(6-(methyl(2,2,6,6-tetramethylpiperidin-4-yl)amino)pyridazin-3-yl)isoquinoline-1,6-diol]: the “tHTT pIC50” value with tHTT is on record as 7.128. Further, in the experiment with mHTT, the “Rating (based on mHTT potency)” value is “**** (a pIC50 value between 7.0 and 7.5 is indicated by four stars (****))”; the “mHTT pIC50” value is recorded as 7.161.
Take `CN(c1ccc(-c2ccc(-c3ccn(C4CC4)c(=O)c3)cc2O)nn1)C1CC(C)(C)NC(C)(C)C1` [Compound 26, 1-cyclopropyl-4-(3-hydroxy-4-(6-(methyl(2,2,6,6-tetramethylpiperidin-4-yl)amino)pyridazin-3-yl)phenyl)pyridin-2(1H)-one]: the “tHTT pIC50” value with tHTT worked out at 7.0435. Besides, in the experiment with mHTT, the “Rating (based on mHTT potency)” value was “**** (a pIC50 value between 7.0 and 7.5 is indicated by four stars (****))”; the “mHTT pIC50” value came to 7.1215.
`Oc1cc(-c2cn[nH]c2)cc(F)c1-c1nnc(N2C[C@H]3CNC[C@H]3C2)s1` [Compound 27, 3-fluoro-2-(5-((3aR,6aS)-hexahydropyrrolo[3,4-c]pyrrol-2(1H)-yl)-1,3,4-thiadiazol-2-yl)-5-(1H-pyrazol-4-yl)phenol]: the “tHTT pIC50” value in the experiment on tHTT came out at 7.085. In the experiment on mHTT, the “Rating (based on mHTT potency)” value was “**** (a pIC50 value between 7.0 and 7.5 is indicated by four stars (****))”; the “mHTT pIC50” value is on record as 7.1125.
With `CN(c1ccc(-c2cc3cnn(C)c3cc2O)nn1)C1CC(C)(C)NC(C)(C)C1` [Compound 28, 1-methyl-5-(6-(methyl(2,2,6,6-tetramethylpiperidin-4-yl)amino)pyridazin-3-yl)-1H-indazol-6-ol], the “tHTT pIC50” value in the experiment on tHTT amounted to 7.1045. For the same compound, in the experiment on mHTT, the “Rating (based on mHTT potency)” value was “**** (a pIC50 value between 7.0 and 7.5 is indicated by four stars (****))”; the “mHTT pIC50” value is listed as 7.111.
As for `Cn1ccc(-c2ccc(-c3ccc(OC4CC(C)(C)NC(C)(C)C4)nn3)c(O)c2)cc1=O` [Compound 29, 4-(3-hydroxy-4-(6-((2,2,6,6-tetramethylpiperidin-4-yl)oxy)pyridazin-3-yl)phenyl)-1-methylpyridin-2(1H)-one], the “tHTT pIC50” value in the experiment on tHTT came out at 7.074. In the experiment with mHTT, the “Rating (based on mHTT potency)” value was “**** (a pIC50 value between 7.0 and 7.5 is indicated by four stars (****))”; the “mHTT pIC50” value is 7.0855.
In the case of `Cc1cc2cc(O)c(-c3ccc(N(C)C4CC(C)(C)NC(C)(C)C4)nn3)cc2cn1` [Compound 30, 3-methyl-7-(6-(methyl(2,2,6,6-tetramethylpiperidin-4-yl)amino)pyridazin-3-yl)isoquinolin-6-ol], in the experiment on tHTT, the “tHTT pIC50” value is 7.0835. Moreover, in the experiment with mHTT, the “Rating (based on mHTT potency)” value is “**** (a pIC50 value between 7.0 and 7.5 is indicated by four stars (****))”; the “mHTT pIC50” value amounted to 7.08.
Consider `CN(c1ccc(-c2cc3ncccc3cc2O)nn1)C1CC(C)(C)NC(C)(C)C1` [Compound 31, 7-(6-(methyl(2,2,6,6-tetramethylpiperidin-4-yl)amino)pyridazin-3-yl)quinolin-6-ol], for which, in the experiment on tHTT, the “tHTT pIC50” value was 7.0015. In addition, in the experiment with mHTT, the “Rating (based on mHTT potency)” value was “**** (a pIC50 value between 7.0 and 7.5 is indicated by four stars (****))”; the “mHTT pIC50” value was 7.0275.
For the compound `CN1C[C@@H]2CN(c3ccc(-c4ccc(-c5cn[nH]c5)cc4O)nn3)C[C@@H]2C1` [Compound 32, 2-(6-((3aR,6aS)-5-methylhexahydropyrrolo[3,4-c]pyrrol-2(1H)-yl)pyridazin-3-yl)-5-(1H-pyrazol-4-yl)phenol], the “tHTT pIC50” value in the experiment with tHTT is given as 7.0625. Moreover, in the experiment on mHTT, the “Rating (based on mHTT potency)” value is “**** (a pIC50 value between 7.0 and 7.5 is indicated by four stars (****))”; the “mHTT pIC50” value is on record as 7.0085.
Take `CN(c1ccc(-c2cc3c(cc2O)-c2nc(N)sc2C3)nn1)C1CC(C)(C)NC(C)(C)C1` [Compound 33, 2-amino-6-(6-(methyl(2,2,6,6-tetramethylpiperidin-4-yl)amino)pyridazin-3-yl)-8H-indeno[1,2-d]thiazol-5-ol]: the “tHTT pIC50” value in the experiment on tHTT is 7.001. In the experiment on mHTT, the “Rating (based on mHTT potency)” value is “**** (a pIC50 value between 7.0 and 7.5 is indicated by four stars (****))”; the “mHTT pIC50” value is on record as 7.0085.
Consider `CC1(C)CC(Oc2ccc(-c3ccc(-n4cccn4)cc3O)nn2)CC(C)(C)N1` [Compound 34, 5-(1H-pyrazol-1-yl)-2-(6-(2,2,6,6-tetramethylpiperidin-4-yloxy)pyridazin-3-yl)phenol], for which, in the experiment with tHTT, the “tHTT pIC50” value amounted to 6.9475. Besides, in the experiment with mHTT, the “Rating (based on mHTT potency)” value is “**** (a pIC50 value between 7.0 and 7.5 is indicated by four stars (****))”; the “mHTT pIC50” value was determined as 7.004.
`Cc1cc(-c2ccc(-c3ccc(N(C)C4CC(C)(C)NC(C)(C)C4)nn3)c(O)c2)ccn1` [Compound 35, 2-(6-(methyl(2,2,6,6-tetramethylpiperidin-4-yl)amino)pyridazin-3-yl)-5-(2-methylpyridin-4-yl)phenol]: the “tHTT pIC50” value in the experiment on tHTT is reported as 6.877. For the same compound, in the experiment with mHTT, the “Rating (based on mHTT potency)” value was “**** (a pIC50 value between 7.0 and 7.5 is indicated by four stars (****))”; the “mHTT pIC50” value was found to be 7.003.
For `Oc1cc(-c2cn[nH]c2)cc(F)c1-c1nnc(N2CC3(CCNCC3)C2)s1` [Compound 36, 2-(5-(2,7-diazaspiro[3.5]nonan-2-yl)-1,3,4-thiadiazol-2-yl)-3-fluoro-5-(1H-pyrazol-4-yl)phenol], in the experiment with tHTT, the “tHTT pIC50” value was 6.827. Besides, in the experiment on mHTT, the “Rating (based on mHTT potency)” value was “*** (a pIC50 value between 6.5 and 7.0 is indicated by three stars (***))”; the “mHTT pIC50” value is recorded as 6.996.
Take `CC1(C)CC(Oc2ccc(-c3cc4ccc(O)cc4cc3O)nn2)CC(C)(C)N1` [Compound 37, 3-(6-(2,2,6,6-tetramethylpiperidin-4-yloxy)pyridazin-3-yl)naphthalene-2,7-diol]: in the experiment on tHTT, the “tHTT pIC50” value is reported as 7.121. Moreover, in the experiment with mHTT, the “Rating (based on mHTT potency)” value is “*** (a pIC50 value between 6.5 and 7.0 is indicated by three stars (***))”; the “mHTT pIC50” value came to 6.98.
As to `Cc1cnc2cc(-c3ccc(N(C)C4CC(C)(C)NC(C)(C)C4)nn3)c(O)cc2n1` [Compound 38, 3-methyl-7-(6-(methyl(2,2,6,6-tetramethylpiperidin-4-yl)amino)pyridazin-3-yl)quinoxalin-6-ol], in the experiment with tHTT, the “tHTT pIC50” value worked out at 7.0015. In the experiment with mHTT, the “Rating (based on mHTT potency)” value is “*** (a pIC50 value between 6.5 and 7.0 is indicated by three stars (***))”; the “mHTT pIC50” value came to 6.9735.
As to `CN(c1ccc(-c2cc3nccnc3cc2O)nn1)C1CC(C)(C)NC(C)(C)C1` [Compound 39, 7-(6-(methyl(2,2,6,6-tetramethylpiperidin-4-yl)amino)pyridazin-3-yl)quinoxalin-6-ol], the “tHTT pIC50” value in the experiment on tHTT was determined as 6.9105. Further, in the experiment on mHTT, the “Rating (based on mHTT potency)” value was “*** (a pIC50 value between 6.5 and 7.0 is indicated by three stars (***))”; the “mHTT pIC50” value is on record as 6.946.
As to `CN(c1ccc(-c2cc3cn(C)nc3cc2O)nn1)C1CC(C)(C)NC(C)(C)C1` [Compound 40, 2-methyl-5-(6-(methyl(2,2,6,6-tetramethylpiperidin-4-yl)amino)pyridazin-3-yl)-2H-indazol-6-ol], the “tHTT pIC50” value in the experiment with tHTT is on record as 6.994. Also, in the experiment with mHTT, the “Rating (based on mHTT potency)” value was “*** (a pIC50 value between 6.5 and 7.0 is indicated by three stars (***))”; the “mHTT pIC50” value is given as 6.927.
`CN(c1ccc(-c2cc3ccccc3cc2O)nn1)C1CC(C)(C)NC(C)(C)C1` [Compound 41, 3-(6-(methyl(2,2,6,6-tetramethylpiperidin-4-yl)amino)pyridazin-3-yl)naphthalen-2-ol]: the “tHTT pIC50” value in the experiment with tHTT is on record as 6.8125. Further, in the experiment on mHTT, the “Rating (based on mHTT potency)” value is “*** (a pIC50 value between 6.5 and 7.0 is indicated by three stars (***))”; the “mHTT pIC50” value was found to be 6.923.
